In patent publication US20150057253A1, “ALKYL DERIVATIVES AS SPHINGOSINE-1 PHOSPHATE RECEPTORS MODULATORS” (Allergan, Inc., priority 2013, published 2015):

Biological target: T1, human S1P1 receptor (Homo sapiens, UniProt P21453)
T1 construct: expressed in transfected cells; membrane preparation
Test: GTP γ35S binding assay for S1P1 activity
Type: biochemical
Conditions: membranes of cells stably expressing the S1P1 receptor, test compounds 0.08 to 5,000 nM
Procedure: Compounds were synthesized and tested for S1P1 activity using the GTP γ^35S binding assay. These compounds may be assessed for their ability to activate or block activation of the human S1P1 receptor in cells stably expressing the S1P1 receptor.
GTP γ^35S binding was measured in the medium containing (mM) HEPES 25, pH 7.4, MgCl2 10, NaCl 100, dithiothreitol 0.5, digitonin 0.003%, 0.2 nM GTP γ^35S, and 5 μg membrane protein in a volume of 150 μl. Test compounds were included in the concentration range from 0.08 to 5,000 nM unless indicated otherwise. Membranes were incubated with 100 μM 5′-adenylylimidodiphosphate for 30 min, and subsequently with 10 μM GDP for 10 min on ice. Drug solutions and membrane were mixed, and then reactions were initiated by adding GTP γ^35S and continued for 30 min at 25° C. Reaction mixtures were filtered over Whatman GF/B filters under vacuum, and washed three times with 3 mL of ice-cold buffer (HEPES 25, pH7.4, MgCl2 10 and NaCl 100). Filters were dried and mixed with scintillant, and counted for ^35S activity using a β-counter. Agonist-induced GTP γ^35S binding was obtained by subtracting that in the absence of agonist. Binding data were analyzed using a non-linear regression method. In case of antagonist assay, the reaction mixture contained 10 nM […] in the presence of test antagonist at concentrations ranging from 0.08 to 5000 nM.

T1 sequence (P21453 whole entry): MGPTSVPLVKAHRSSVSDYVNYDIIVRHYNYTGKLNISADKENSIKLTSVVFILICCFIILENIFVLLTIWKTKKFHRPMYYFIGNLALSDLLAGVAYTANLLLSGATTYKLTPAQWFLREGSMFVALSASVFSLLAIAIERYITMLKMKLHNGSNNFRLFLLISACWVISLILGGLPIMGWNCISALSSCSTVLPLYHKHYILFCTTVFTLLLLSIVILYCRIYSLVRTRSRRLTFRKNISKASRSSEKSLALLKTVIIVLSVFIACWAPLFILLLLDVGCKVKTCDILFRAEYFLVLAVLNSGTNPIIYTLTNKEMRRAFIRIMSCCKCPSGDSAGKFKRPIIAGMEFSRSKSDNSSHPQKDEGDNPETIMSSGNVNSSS

| Structure (SMILES) | EC50 [nM] |
| --- | --- |
| Cc1ccc(CC(CCCCc2ccc(CNCCC(=O)O)cc2)c2cc(F)cc(F)c2)cc1C (stereo not drawn) [3-({4-[5-(3,5-Difluorophenyl)-6-(3,4)-dimethylphenyl)hexyl]benzyl}amino)propanoic acid] | 6.79 |
| Cc1ccc(CC(CCCCc2ccc(CNCCCP(=O)(O)O)cc2)c2cccc(Cl)c2)cc1C (stereo not drawn) [[3-({4-[5-(3-Chlorophenyl)-6-(3,4-dimethylphenyl)hexyl]benzyl}amino)propyl]phosphonic acid] | 3.72 |
| Cc1ccc(CC(CCCCc2ccc(CNCCCP(=O)(O)O)cc2)c2cc(F)cc(F)c2)cc1C (stereo not drawn) [[3-({4-[5-(3,5-Difluorophenyl)-6-(3,4-dimethylphenyl)hexyl]benzyl}amino)propyl]phosphonic acid] | 5.09 |

More lines, now with the values ahead:

| EC50 [nM] | Structure (SMILES) |
| --- | --- |
| 20.1 | Cc1ccc(CC(CCCCc2ccc(CNCCC(=O)O)cc2)c2cccc(Cl)c2)cc1C (stereo not drawn) [3-({4-[5-(3-Chlorophenyl)-6-(3,4-dimethylphenyl)hexyl]benzyl}amino)propanoic acid] |
| 3.09 | Cc1ccc(CC(CCCc2ccc(CNCCCP(=O)(O)O)cc2)c2cccc(Cl)c2)cc1C (stereo not drawn) [[3-({4-[4-(3-Chlorophenyl)-5-(3,4-dimethylphenyl)pentyl]benzyl}amino)propyl]phosphonic acid] |
| 142 | Cc1ccc(CC(CCCc2ccc(CNCCC(=O)O)cc2)c2cccc(Cl)c2)cc1C (stereo not drawn) [3-({4-[4-(3-Chlorophenyl)-5-(3,4-dimethylphenyl)pentyl]benzyl}amino)propanoic acid] |
